This note sets out measurements from patent US6004967A, “Psoriasis treatment with quinazoline compounds” (priority 1997, dated 1999).

Broadly, the IC50 is the midpoint of a concentration-inhibition curve.

One series deals with T1, IR (Homo sapiens, UniProt P06213).
T1 construct: expressed in transfected cells; host or cells: NIH3T3 mouse fibroblasts, retroviral vector (3T3-IR)
Put plainly: Insulin-stimulated receptor phosphorylation ELISA, 3T3-IR. It is filed as cell-based. The text has this:
(§1) Cells and Cell Culture. All tumor cell lines were obtained from the American Type Culture Collection (Rockville, Md.), unless otherwise specified. NIH3T3 mouse fibroblasts overexpressing the EGF receptor, IGF-1 receptor, insulin receptor, PDGF-b receptor, or a chimera of the EGF receptor extracellular domain fused to the Her-2 cytoplasmic domain were engineered using retroviral vectors. These cells will be referred to as 3T3-EGFR, 3T3-IGF1R, 3T3-IR, 3T3-PDGF-bR, and 3T3-EGFR/Her-2, respectively. All cell culture media and supplements were purchased from Gibco Life Technologies (Grand Island, N.Y.) unless otherwise specified. […] Cell lines were maintained under standard conditions in culture media recommended by the ATCC, unless otherwise specified. 3T3-EGFR, 3T3-PDGF-bR, and 3T3-EGFR/Her-2 cells were maintained in DMEM containing 10% calf serum (CS) and 2 mM GLN. 3T3-IGF1R and 3T3-IR cells were maintained in DMEM containing 10% FBS and 2 mM GLN. Keratinocytes were obtained from small biopsy specimens of split-thicknessskin from patients with psoriasis and from healthy control donors.
In vitro functional studies. […] For analysis of DNA replication (measured as incorporation of BrdU) and cell cycle progression, 3T3-EGFR and 3T3-PDGF-bR cell lines were used. […]
Receptor phosphorylation was measured by ELISA. […]
In general terms: ELISA stands for enzyme-linked immunosorbent assay.

Series [1] is described as follows: Plasma levels of A1 after topical application in nu/nu mice.
Protocol: Approximately 60 mg of a 2% (w/w/ointment was applied to the backs of four female mice using a stainless steel spatula. The dose was spread evenly over the back surface of each mouse.
Plasma was prepared from blood samples taken 30 or 60 min. following application (2 mice per time point) and examined by HPLC. In a second experiment, approximated 0.50 mg of the 2% (w/v) ointment was applied in the same manner. […] The lower limit of quantitation for the HPLC assay is 1.0 μg/ml.
The next series concerns 3T3-EGFR cells. Put plainly: EGF-driven cell cycle progression (propidium iodide, FACS). It is filed as cell-based, mouse. The note with it: 20 hours. On the procedure: (§2) In vitro functional studies. […] Cell lines examined in receptor phosphorylation ELISA were 3T3-EGFR, 3T3-EGFR/Her-2, 3T3-PDGF-bR, 3T3-IGF1R, and 3T3-IR. For analysis of DNA replication (measured as incorporation of BrdU) and cell cycle progression, 3T3-EGFR and 3T3-PDGF-bR cell lines were used. Cell growth studies were carried out on A431 (EGF-R+), BT474 (Her-2+), and C6 (PDGF-bR+) cell lines.

The next series deals with T2, IGF-1R (Homo sapiens, UniProt P08069).
T2 construct: expressed in transfected cells; host or cells: NIH3T3 mouse fibroblasts, retroviral vector (3T3-IGF1R)
T2 sequence (P08069 741-1367 limits assumed, species assumed): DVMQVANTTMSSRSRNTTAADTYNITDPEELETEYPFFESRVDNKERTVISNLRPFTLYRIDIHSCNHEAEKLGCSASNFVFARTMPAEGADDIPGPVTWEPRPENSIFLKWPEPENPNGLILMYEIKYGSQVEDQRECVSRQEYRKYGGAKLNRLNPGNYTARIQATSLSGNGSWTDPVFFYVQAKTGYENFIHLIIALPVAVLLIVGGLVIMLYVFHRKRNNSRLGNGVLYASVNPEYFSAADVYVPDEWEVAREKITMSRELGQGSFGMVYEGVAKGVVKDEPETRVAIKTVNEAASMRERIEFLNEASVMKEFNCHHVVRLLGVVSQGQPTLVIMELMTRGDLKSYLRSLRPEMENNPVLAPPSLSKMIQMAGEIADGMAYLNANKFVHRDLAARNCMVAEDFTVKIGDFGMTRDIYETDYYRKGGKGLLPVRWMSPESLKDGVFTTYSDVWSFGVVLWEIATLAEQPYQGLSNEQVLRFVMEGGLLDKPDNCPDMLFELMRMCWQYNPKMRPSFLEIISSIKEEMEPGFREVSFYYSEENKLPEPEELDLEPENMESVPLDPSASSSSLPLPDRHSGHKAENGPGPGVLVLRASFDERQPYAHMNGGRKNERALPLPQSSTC
T2 sequence (P08069 31-736 partner limits assumed, species assumed): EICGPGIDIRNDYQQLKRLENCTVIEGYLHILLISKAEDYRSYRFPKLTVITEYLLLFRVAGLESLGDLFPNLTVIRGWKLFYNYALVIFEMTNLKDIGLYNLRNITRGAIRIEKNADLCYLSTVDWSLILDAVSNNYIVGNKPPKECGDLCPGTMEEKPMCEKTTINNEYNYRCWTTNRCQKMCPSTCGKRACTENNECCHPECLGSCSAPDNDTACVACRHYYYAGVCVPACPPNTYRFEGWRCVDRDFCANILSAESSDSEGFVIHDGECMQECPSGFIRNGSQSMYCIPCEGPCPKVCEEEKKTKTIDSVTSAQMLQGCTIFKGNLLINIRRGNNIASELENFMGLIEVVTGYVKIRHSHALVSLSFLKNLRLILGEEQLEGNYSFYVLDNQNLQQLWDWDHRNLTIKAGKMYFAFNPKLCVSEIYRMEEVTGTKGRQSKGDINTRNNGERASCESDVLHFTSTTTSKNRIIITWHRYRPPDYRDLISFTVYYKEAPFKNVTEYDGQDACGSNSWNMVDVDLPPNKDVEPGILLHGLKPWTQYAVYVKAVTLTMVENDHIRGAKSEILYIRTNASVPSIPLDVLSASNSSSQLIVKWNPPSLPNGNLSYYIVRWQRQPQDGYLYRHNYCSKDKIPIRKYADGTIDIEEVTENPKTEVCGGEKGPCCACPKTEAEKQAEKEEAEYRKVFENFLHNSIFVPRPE
Kind of series: IGF-1-stimulated receptor phosphorylation ELISA, 3T3-IGF1R. It is filed as cell-based.
From the text: as §1, §2
Receptor phosphorylation was measured by ELISA. EGF-R/Her-2 denotes a chimeric receptor consisting of the extracellular (ligand-binding) domain of EGFR, and the transmembrane and cytoplasmic domains of Her-2.

Another series has as its system C6. Kind of series: Cell growth (SRB), C6. It is filed as cell-based. The protocol: (§3) In vitro functional studies.
(§4) After 4 days, cell density was measured by SRB staining. IC50 values were determined by regression analysis. For these experiments, cell lines whose growth is dependent on naturally-expressed RTK were examined.

The next series deals with BT474. Kind of series: Cell growth (SRB), BT474. It is filed as cell-based. The conditions noted are these: Homo sapiens, BT-474, 96 h; RTK Her-2, 4 day incubation. The protocol:
as §3, §4

T1 sequence (P06213 763-1382 limits assumed): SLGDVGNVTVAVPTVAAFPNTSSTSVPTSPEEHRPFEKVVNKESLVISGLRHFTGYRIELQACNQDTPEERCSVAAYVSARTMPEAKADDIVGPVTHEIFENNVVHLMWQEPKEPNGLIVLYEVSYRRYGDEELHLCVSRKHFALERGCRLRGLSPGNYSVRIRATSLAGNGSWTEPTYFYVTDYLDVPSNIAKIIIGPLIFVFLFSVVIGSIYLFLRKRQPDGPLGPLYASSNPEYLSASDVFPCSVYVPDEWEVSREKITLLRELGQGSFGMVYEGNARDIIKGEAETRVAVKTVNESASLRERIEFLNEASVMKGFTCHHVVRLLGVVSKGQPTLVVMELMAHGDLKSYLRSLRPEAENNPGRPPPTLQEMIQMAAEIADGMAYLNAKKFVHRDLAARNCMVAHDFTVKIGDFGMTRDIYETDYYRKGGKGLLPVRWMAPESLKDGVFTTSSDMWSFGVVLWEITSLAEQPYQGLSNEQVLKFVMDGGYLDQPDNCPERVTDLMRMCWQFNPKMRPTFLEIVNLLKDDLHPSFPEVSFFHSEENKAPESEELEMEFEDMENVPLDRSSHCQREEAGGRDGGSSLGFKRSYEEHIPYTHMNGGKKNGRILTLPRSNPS
T1 sequence (P06213 28-758 partner limits assumed): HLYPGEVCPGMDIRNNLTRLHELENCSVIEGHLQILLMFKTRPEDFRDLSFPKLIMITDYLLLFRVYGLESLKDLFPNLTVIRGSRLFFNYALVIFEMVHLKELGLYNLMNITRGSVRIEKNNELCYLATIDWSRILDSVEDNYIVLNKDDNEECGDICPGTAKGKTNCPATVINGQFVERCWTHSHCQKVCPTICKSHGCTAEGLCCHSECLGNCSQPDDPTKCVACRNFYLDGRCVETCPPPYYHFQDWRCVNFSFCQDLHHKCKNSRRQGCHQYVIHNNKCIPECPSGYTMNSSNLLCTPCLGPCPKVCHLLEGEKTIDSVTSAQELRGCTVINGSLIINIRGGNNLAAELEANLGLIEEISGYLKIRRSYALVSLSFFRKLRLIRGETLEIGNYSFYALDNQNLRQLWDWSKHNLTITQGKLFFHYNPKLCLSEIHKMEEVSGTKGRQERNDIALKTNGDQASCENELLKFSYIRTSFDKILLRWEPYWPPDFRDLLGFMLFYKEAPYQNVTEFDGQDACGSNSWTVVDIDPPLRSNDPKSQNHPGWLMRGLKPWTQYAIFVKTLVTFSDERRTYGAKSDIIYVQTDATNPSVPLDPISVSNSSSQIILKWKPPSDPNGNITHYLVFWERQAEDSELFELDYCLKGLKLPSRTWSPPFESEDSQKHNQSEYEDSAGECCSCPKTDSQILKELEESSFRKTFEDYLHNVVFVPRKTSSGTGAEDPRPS

As to `COc1cc2ncnc(Nc3cccc(Br)c3)c2cc1OC` [A1, 4-(3-Bromophenylamino)-6,7-dimethoxyquinazoline], the “inhibition of receptor phosphorylation, IR” value at IR (concentrations up to 100 μM) is “not inhibited”. Besides, the IC50 is greater than 100000 nM on IR (ligand Insulin, 2 hr pretreatment); 34 nM in the series with 3T3-EGFR cells; greater than 100000 nM on IGF-1R (ligand IGF-1, 2 hr pretreatment); greater than 100000 nM in the series on C6 (Rattus norvegicus, C6, 96 h, RTK PDGF-bR, 4 day incubation); 900 nM in the series on BT474. Also, the concentration at 0.5 h in series [1] (mouse, plasma, topical or ocular) is less than 2000 ng/mL. In addition, in series [1] (topical 2% ointment, nu/nu mice), the “discomfort or increased grooming behavior” value is given as “no discomfort or increased grooming behavior”. Besides, the “activity against insulin-like growth factor-1 receptor (in words)” value at IGF-1R is recorded as “little or no activity”. Moreover, the “inhibition of receptor phosphorylation, IGF-1R” value on IGF-1R (concentrations up to 100 μM) is “not inhibited”. Also, in the series on C6, the “inhibition of PDGF-bR-dependent cell growth (in words)” value is reported as “did not inhibit”.
